{"source": "patent US20240148821A1", "about": "“PHARMACEUTICAL USE OF CYCLIC PEPTIDE COMPOUND” (CHUGAI SEIYAKU KABUSHIKI KAISHA, priority 2021, published 2024)", "note": "Square brackets hold non-standard residues; d marks the D form. Peptide text beside a SMILES is read from it. * marks the point of attachment. hPhe(3-Cl-4-CF3) = N[C@@H](CCc1ccc(C(F)(F)F)c(Cl)c1)C(=O)O; NMePhe(4-CF3) = CN[C@@H](Cc1ccc(C(F)(F)F)cc1)C(=O)O; NMePhe(4-Me) = CN[C@@H](Cc1ccc(C)cc1)C(=O)O; NMeGly(cPent) = CN[C@H](C(=O)O)C1CCCC1; NMeCha = CN[C@@H](CC1CCCCC1)C(=O)O; CH2CONHtBu = CC(C)(C)NC(=O)C*; NMeL = CN[C@@H](CC(C)C)C(=O)O; d(β3hA) = C[C@@H](N)CC(=O)O; NMeS = CN[C@@H](CO)C(=O)O; NMeA = CN[C@@H](C)C(=O)O; dNMeA = CN[C@H](C)C(=O)O; Ac5c = NC1(C(=O)O)CCCC1; Aze = O=C(O)[C@@H]1CCN1; Ac4c = NC1(C(=O)O)CCC1; Isopentyl = CC(C)CC*; Sar = CNCC(=O)O", "data": [{"target": "protein-protein interaction between Kras and SOS1 (biotin-tagged human Kras loaded with GDP, His-tagged human SOS1) (Homo sapiens (Human), UniProt P01116, G12D)", "experiment": "Protein-protein interaction inhibition between Kras and SOS1 (KrasG12D-SOS PPI) using AlphaScreen;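 also: kras produced in E. coli, Ni-coupled donor beads and streptavidin acceptor beads, excitation 680 nm with emission detected at 520–620 nm via singlet oxygen transfer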", "format": "biochemical", "conditions": "AlphaScreen; biotin-tagged human Kras loaded with GDP, His-tagged human SOS1; read-out: KRAS G12D-SOS PPI IC50", "units": {"IC50": "nM"}, "values": [{"smiles": "CC[C@H](C)[C@@H]1NC(=O)[C@H](CC(C)C)N(C)C(=O)C[C@@H](C)NC(=O)[C@H](C2CCCC2)N(C)C(=O)C2(CCCC2)NC(=O)[C@@H]2CCCN2C(=O)[C@H](CCc2ccc(C(F)(F)F)c(Cl)c2)NC(=O)[C@@H](C)N(C)C(=O)[C@H](Cc2ccc(C(F)(F)F)cc2)N(C)C(=O)[C@@H]2CCN2C(=O)[C@H](C)N(C)C1=O", "note": "[Compound 1482] (cyclo([Ac5c][NMeGly(cPent)][d(β3hA)][NMeL]I[NMeA][Aze][NMePhe(4-CF3)][dNMeA][hPhe(3-Cl-4-CF3)]P))", "IC50": 88}, {"smiles": "CC[C@H](C)[C@@H]1NC(=O)[C@H](C)N(C)C(=O)C[C@@H](C)NC(=O)[C@H](C2CCCC2)N(C)C(=O)C2(CCCC2)NC(=O)[C@@H]2CCCN2C(=O)[C@H](CCc2ccc(C(F)(F)F)c(Cl)c2)NC(=O)CN(C)C(=O)[C@H](Cc2ccc(C)cc2)N(C)C(=O)CN(C)C(=O)CN(C)C1=O", "note": "[Compound 1485] (cyclo([Ac5c][NMeGly(cPent)][d(β3hA)][NMeA]I[Sar][Sar][NMePhe(4-Me)][Sar][hPhe(3-Cl-4-CF3)]P))", "IC50": 0.84}, {"smiles": "CC[C@H](C)[C@@H]1NC(=O)[C@H](C)N(C)C(=O)C[C@@H](C)NC(=O)[C@H](C2CCCC2)N(C)C(=O)C2(CCC2)NC(=O)[C@@H]2CCCN2C(=O)[C@H](CCc2ccc(C(F)(F)F)c(Cl)c2)NC(=O)CN(C)C(=O)[C@H](Cc2ccc(C(F)(F)F)cc2)N(C)C(=O)CN(C)C(=O)CN(C)C1=O", "note": "[Compound 1486] (cyclo([Ac4c][NMeGly(cPent)][d(β3hA)][NMeA]I[Sar][Sar][NMePhe(4-CF3)][Sar][hPhe(3-Cl-4-CF3)]P))", "IC50": 0.5}, {"smiles": "CC[C@H](C)[C@@H]1NC(=O)[C@H](CC(C)C)N(C)C(=O)C[C@@H](C)NC(=O)[C@H](CC(C)C)N(C)C(=O)C2(CCCC2)NC(=O)[C@H](COCC(=O)NC(C)(C)C)N(C)C(=O)[C@H](CCc2ccc(C(F)(F)F)c(Cl)c2)NC(=O)CN(C)C(=O)[C@H](COCCC(C)C)N(C)C(=O)CN(C)C(=O)CN(C)C1=O", "note": "[Compound 1492] (cyclo([Ac5c][NMeL][d(β3hA)][NMeL]I[Sar][Sar][NMeS](Isopentyl)[Sar][hPhe(3-Cl-4-CF3)][NMeS](CH2CONHtBu)))", "IC50": 240}, {"smiles": "CC[C@H](C)[C@@H]1NC(=O)[C@H](CC(C)C)N(C)C(=O)C[C@@H](C)NC(=O)[C@H](C2CCCC2)N(C)C(=O)C2(CCCC2)NC(=O)[C@@H]2CCCN2C(=O)[C@H](CCc2ccc(C(F)(F)F)c(Cl)c2)NC(=O)CN(C)C(=O)[C@H](Cc2ccc(C(F)(F)F)cc2)N(C)C(=O)[C@@H]2CCN2C(=O)CN(C)C1=O", "note": "[Compound 1496] (cyclo([Ac5c][NMeGly(cPent)][d(β3hA)][NMeL]I[Sar][Aze][NMePhe(4-CF3)][Sar][hPhe(3-Cl-4-CF3)]P))", "IC50": 2}, {"smiles": "CC[C@H](C)[C@@H]1NC(=O)[C@H](C)N(C)C(=O)C[C@@H](C)NC(=O)[C@H](C2CCCC2)N(C)C(=O)C2(CCCC2)NC(=O)[C@@H]2CCCN2C(=O)[C@H](CCc2ccc(C(F)(F)F)c(Cl)c2)NC(=O)[C@@H](C)N(C)C(=O)[C@H](Cc2ccc(C(F)(F)F)cc2)N(C)C(=O)[C@@H]2CCN2C(=O)[C@H](C)N(C)C1=O", "note": "[Compound 1497] (cyclo([Ac5c][NMeGly(cPent)][d(β3hA)][NMeA]I[NMeA][Aze][NMePhe(4-CF3)][dNMeA][hPhe(3-Cl-4-CF3)]P))", "IC50": 25}, {"smiles": "CC[C@H](C)[C@@H]1NC(=O)[C@H](CC(C)C)N(C)C(=O)C[C@@H](C)NC(=O)[C@H](C2CCCC2)N(C)C(=O)C2(CCCC2)NC(=O)[C@@H]2CCCN2C(=O)[C@H](CCc2ccc(C(F)(F)F)c(Cl)c2)NC(=O)CN(C)C(=O)[C@H](CC2CCCCC2)N(C)C(=O)[C@@H]2CCN2C(=O)CN(C)C1=O", "note": "[Compound 1499] (cyclo([Ac5c][NMeGly(cPent)][d(β3hA)][NMeL]I[Sar][Aze][NMeCha][Sar][hPhe(3-Cl-4-CF3)]P))", "IC50": 19}]}]}
